Reference: patent US10675286B2, “Heterocyclic compounds and uses thereof” (Infinity Pharmaceuticals, Inc., priority 2014, dated 2020)

Experiments:
[1] = Oral pharmacokinetics of Compound BB in monkey; type: in vivo; settings: 5 mg/kg oral
From the text: (§1) Compound BB's oral exposure is high in rat, dog and monkey. Good oral bioavailability and low clearance in rodent and non-rodent animal species results in high oral exposure.

MC38 tumor cells = assay: MC38 colon cancer model; type: in vivo, mouse
Procedure: In this model, a syngeneic colon cancer cell line is run subcutaneously. The experimental setup was as follows.
The cell injection volume was 0.05 ml per mouse. When tumors reached an average size of 80-100 mm^3, a pair match was made and treatment began. The tumor was measured by caliper biweekly.
The dosing volume was 5 mL/kg.
For all animals, blood was collected by terminal cardiac puncture under isoflurane anesthesia. The blood was processed for plasma. In addition, tumor samples were collected.
At study end, tumors were isolated, fixed in 10% neutral buffered formalin and embedded in paraffin for histologic analysis. […] T-cells within the tumor sections were identified utilizing a CD3-specific antibody via automated immunohistochemistry equipment (Ventana). Once stained, slides were digitalized via Aperio slide scanning equipment. Next, stained tumor sections were quantified via Definians software to assess the percentage of CD3 positive cells within each tumor.

LLC tumor brei = LLC tumor brei model, immune cells in tumors; type: in vivo
[2] = tested on: RANKL driven differentiation of osteoclasts; assay: Osteoclast differentiation assay (TRAP) from bone marrow macrophages; type: cell-based, mouse; settings: 6 days
Procedure: Long bones from young C57B6 mice were harvested and bone marrow was extruded by gentle lavage of the bone marrow cavities with a 28 gage needle. The cells were screened, and red blood cells were removed using red blood cell lysis buffer (Sigma). Bone marrow cells were differentiated to macrophages using 20 ng/ml mouse MCSF (RnD systems) for 3 days (RPMI and 20% FCS). The cell were washed with PBS, and lifted with Accutase for 10 minutes.
The bone marrow macrophage cells were plated at 150,000 cells per well in a 96 well plate in a MEM 10% FCS. […] Then 25 ng/ml mouse MCSF with or without mouse RANKL (100 ng/ml, RnD systems) was added for 6 days. Media changes (including drugs) were done at day 3 and day 5. The cells were then fixed and stained with the tartrate resistant acid phosphatase (TRAP) assay kit from Sigma according to the manufactures instructions. TRAP positive cells (osteoclasts and cells undergoing an osteoclastic differentiation) in a transect of the triplicate wells (at 20× […]) were manually counted by going through the widest part of each well.

[3] = tested on: Myeloid Derived Suppressor Cell; assay: Myeloid Derived Suppressor Cell differentiation assay; type: cell-based
[4] = Tumor growth, Compound BB alone and with 5-FU (FIG. 35); type: in vivo
[5] = tested on: T cell activation (IFN-γ in response to ConA); assay: T cell activation in human whole blood (Con-A, IFN-γ readout); type: cell-based; settings: 24 hours, read-out: IC50, T cell activation as measured by inhibition of IFN-γ
Procedure: The purpose of this study is to evaluate the effect of various antigens (Con-A) in T cell activation in Human Whole Blood vs. 1:1 Diluted Blood using test compounds at 24 hour time-point.
T-cell Activation Media includes RPMI-1000 ml, MEM NEAA-10 ml, Sodium Pyruvate (100 mM)-10 ml, Pen Strep-10 ml, 2-Mercaptoethanol-1 ml, and FBS-100 ml. 100 ul of whole blood were plated in 96 well plate. Used only the 60 inside wells and filled the outside with media or PBS. Diluted human whole blood with 5% Serum RPMI 1640 1:1 and plate 100 ul in 96 well plate. Used only the 60 inside wells and filled the outside with media or PBS.
The compound was diluted using DMSO (Sigma hybridmax). For 1000 nM highest concentration starting from a 10 mM stock, added 300 ul of DMSO into deep well plates. To the highest concentration add 10 ul of 10 mM compound stock.
A media plate was prepared from DMSO plate by taking 100 ul and go into 900 ul media in new deep well plate, taping plate, and putting on mixer for 5 minutes.
The rested cell plates were removed from incubator. Added 12 uL of diluted compound from media plate (final DMSO is 1%), and incubated for 45 minutes.
Con-A was prepared as follows: 200 ul stock into 1 ml Media, 100 ul of that into 1 ml Media, 100 ul of that into 1 ml Media. […] This was analyzed after 24 Hours.
10× stock in media, added 12 ul per well. […] Analyzed with multiplex elisa from MSD. […]

[6] = tested on: CXCL12-induced pAKT in T-cells; assay: CXCL12-induced pAKT in T-cells of CLL patient PBMCs; type: cell-based, human
From the text: There was a tight correlation between the EC50s observed in the CXCL12-induced pAKT assay and the T-cell migration assay.

[7] = In vitro toxicology studies
[8] = Oral pharmacokinetics of Compound BB in rat; type: in vivo; settings: 7.5 mg/kg oral
From the text: as §1

[9] = tested on: spleen T cell proliferation; assay: Ex vivo T-cell proliferation assay with tumor-derived cells; type: cell-based; settings: compared to tumor derived cells from vehicle treated mice
M2 macrophage markers = assay: M2 macrophage marker expression with or without PDL-1 antibody (FIG. 42); type: in vivo

In the case of C[C@H](NC(=O)c1c(N)nn2cccnc12)c1cc2cccc(C#Cc3cnn(C)c3)c2c(=O)n1-c1ccccc1 [Compound BB], the “Oral exposure (plasma concentrations within 24 hours, FIG. 43)” value [1] is reported as “high”, the “Tumor growth (FIG. 29A)” value (MC38 tumor cells; MC38, monotherapy) is reported as “significantly inhibited tumor growth” and the “Intratumoral CD3+ T cells (FIG. 30)” value (MC38 tumor cells; MC38 tumors, vs vehicle) is reported as “significantly more intratumoral CD3+ T cells”. For the same compound, the “CD206+ M2 polarized suppressive macrophages” value (LLC tumor brei) was “reduces”, the TAMs in tumor (LLC tumor brei) was “decreased” and the “RANKL driven differentiation of osteoclasts (TRAP positive cells, FIG. 17)” value [2] was “prevents RANKL driven differentiation of osteoclasts”. The ARG1 [3] was “suppresses”, the VEGF [3] was “suppresses” and the tumor growth ([4]; Compound BB alone) was “reduction in tumor growth”. For the same compound, the tumor growth ([4]; co-administration of Compound BB and 5-FU) was “further reduction”, the IC50 [5] was 2500 nM and the “Inhibition of CXCL12-induced pAKT in T-cells (FIG. 9)” value [6] was “more strongly than a PI3K-δ inhibitor”. The In vitro toxicology [7] was “expected to have very low toxicity”, the “Oral exposure (plasma concentrations within 24 hours, FIG. 43)” value [8] was “high” and the “inhibition of spleen T cell proliferation by cells isolated from tumors of treated mice” value [9] was “less inhibitory”. For the same compound, the “M2 macrophage marker ARG-1” value (M2 macrophage markers) was “reduced” and the “M2 macrophage marker VEGF” value (M2 macrophage markers) was “reduced”.
